From ChEMBL document CHEMBL1201861, “Genomics of Drug Sensitity in Cancer screening data, Wellcome Trust Sanger Institute”

Tests used:
Assay in all cases: cells
Conditions in all cases: Homo sapiens
HT1197 = format: functional, cell-based, HT-1197
Description: SANGER: Inhibition of human HT-1197 cell growth in a cell viability assay.

SW1463 = format: functional, cell-based;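 also: growth inhibition of SW1463 cells, determined with a cell viability assay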
Description: SANGER: Inhibition of human SW1463 cell growth in a cell viability assay.

AGS = format: functional, cell-based;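 also: growth inhibition of AGS cells, determined with a cell viability assay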
Description: SANGER: Inhibition of human AGS cell growth in a cell viability assay.

C3A = format: functional, cell-based;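 also: growth inhibition of C3A human cells, quantified with a cell viability readout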
Description: SANGER: Inhibition of human C3A cell growth in a cell viability assay.

KU-19-19 = format: functional, cell-based
Description: SANGER: Inhibition of human KU-19-19 cell growth in a cell viability assay.

CAL-62 = format: functional, cell-based;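 also: growth inhibition of CAL-62 cells, read out with a cell viability assay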
Description: SANGER: Inhibition of human CAL-62 cell growth in a cell viability assay.

PC-14 = format: functional, cell-based;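 also: cell viability assay measuring inhibition of PC-14 cell growth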
Description: SANGER: Inhibition of human PC-14 cell growth in a cell viability assay.

SNU-387 = format: functional, cell-based
Description: SANGER: Inhibition of human SNU-387 cell growth in a cell viability assay.

NCI-H2347 = format: functional, cell-based;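 also: growth inhibition of the cell line, read out with a cell viability assay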
Description: SANGER: Inhibition of human NCI-H2347 cell growth in a cell viability assay.

MOLT-13 = format: functional, cell-based;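 also: IC50 for suppression of MOLT-13 cell growth, read out with a cell viability assay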
Description: SANGER: Inhibition of human MOLT-13 cell growth in a cell viability assay.

HuP-T4 = format: functional, cell-based;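 also: cell viability assay measuring how much HuP-T4 cell growth is inhibited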
Description: SANGER: Inhibition of human HuP-T4 cell growth in a cell viability assay.

HLE = format: functional, cell-based;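 also: growth inhibition of human HLE cells, read out by a cell viability assay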
Description: SANGER: Inhibition of human HLE cell growth in a cell viability assay.

PANC-03-27 = format: functional, cell-based
Description: SANGER: Inhibition of human PANC-03-27 cell growth in a cell viability assay.

NB14 = format: functional, cell-based;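 also: growth inhibition of NB14 cells measured with a cell viability assay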
Description: SANGER: Inhibition of human NB14 cell growth in a cell viability assay.

KYSE-180 = format: functional, cell-based;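 also: growth inhibition of KYSE-180 cells, read out with a cell viability assay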
Description: SANGER: Inhibition of human KYSE-180 cell growth in a cell viability assay.

LB996-RCC = format: functional, cell-based
Description: SANGER: Inhibition of human LB996-RCC cell growth in a cell viability assay.

PANC-08-13 = format: functional, cell-based;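 also: cell growth inhibition, measured with a cell viability assay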
Description: SANGER: Inhibition of human PANC-08-13 cell growth in a cell viability assay.

BFTC-909 = format: functional, cell-based
Description: SANGER: Inhibition of human BFTC-909 cell growth in a cell viability assay.

SNU-423 = format: functional, cell-based
Description: SANGER: Inhibition of human SNU-423 cell growth in a cell viability assay.

YH-13 = format: functional, cell-based;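 also: cell viability readout of growth suppression in the human YH-13 cell line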
Description: SANGER: Inhibition of human YH-13 cell growth in a cell viability assay.

KYSE-150 cell line = format: functional, cell-based;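 also: growth inhibition of human KYSE-150 cells, read out with a cell viability assay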
Description: SANGER: Inhibition of human KYSE-150 cell growth in a cell viability assay.

RERF-LC-MS = format: functional, cell-based;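 also: growth inhibition of human RERF-LC-MS cells, read out by a cell viability assay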
Description: SANGER: Inhibition of human RERF-LC-MS cell growth in a cell viability assay.

A253 cell line = format: functional, cell-based;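 also: growth inhibition of A253 cells, read out with a cell viability assay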
Description: SANGER: Inhibition of human A253 cell growth in a cell viability assay.

HPAF-II = format: functional, cell-based;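 also: growth inhibition of HPAF-II cells, read out with a cell viability assay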
Description: SANGER: Inhibition of human HPAF-II cell growth in a cell viability assay.

T47D = format: functional, cell-based;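 also: growth inhibition of human T47D cells, measured with a cell viability assay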
Description: SANGER: Inhibition of human T47D cell growth in a cell viability assay.

ChaGo-K-1 = format: functional, cell-based;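 also: growth inhibition of ChaGo-K-1 cells, read out with a cell viability assay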
Description: SANGER: Inhibition of human ChaGo-K-1 cell growth in a cell viability assay.

ME-180 = format: functional, cell-based;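 also: cell viability assay measuring growth inhibition of ME-180 cells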
Description: SANGER: Inhibition of human ME-180 cell growth in a cell viability assay.

647-V = format: functional, cell-based;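 also: growth inhibition of 647-V cells, read out with a cell viability assay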
Description: SANGER: Inhibition of human 647-V cell growth in a cell viability assay.

KYSE-270 = format: functional, cell-based;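 also: cell growth inhibition measured with a viability assay in the human KYSE-270 line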
Description: SANGER: Inhibition of human KYSE-270 cell growth in a cell viability assay.

CAL-51 = format: functional, cell-based;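 also: human CAL-51 cell line, growth inhibition read out via a cell viability assay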
Description: SANGER: Inhibition of human CAL-51 cell growth in a cell viability assay.

EGI-1 = format: functional, cell-based;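 also: cell viability readout used to gauge growth inhibition of EGI-1 cells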
Description: SANGER: Inhibition of human EGI-1 cell growth in a cell viability assay.

RMG-I = format: functional, cell-based;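 also: growth inhibition of human RMG-I cells, read out with a cell viability assay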
Description: SANGER: Inhibition of human RMG-I cell growth in a cell viability assay.

NCI-H1048 = format: functional, cell-based;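 also: growth inhibition of human NCI-H1048 cells, read out with a cell viability assay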
Description: SANGER: Inhibition of human NCI-H1048 cell growth in a cell viability assay.

TYK-nu = format: functional, cell-based;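 also: growth inhibition of human TYK-nu cells, read out by a cell viability assay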
Description: SANGER: Inhibition of human TYK-nu cell growth in a cell viability assay.

HCT-116 = format: functional, cell-based
Description: SANGER: Inhibition of human HCT-116 cell growth in a cell viability assay.

MEL-HO = format: functional, cell-based
Description: SANGER: Inhibition of human MEL-HO cell growth in a cell viability assay.

SW48 = format: functional, cell-based;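 also: growth inhibition of SW48 cells, read out with a cell viability assay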
Description: SANGER: Inhibition of human SW48 cell growth in a cell viability assay.

COR-L23 = format: functional, cell-based;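 also: cell viability assay measuring how strongly compounds suppress growth of COR-L23 cells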
Description: SANGER: Inhibition of human COR-L23 cell growth in a cell viability assay.

EW-22 = format: functional, cell-based;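 also: growth inhibition of the EW-22 cell line, measured with a cell viability readout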
Description: SANGER: Inhibition of human EW-22 cell growth in a cell viability assay.

SW780 = format: functional, cell-based;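 also: growth inhibition of the cells, read out with a cell viability assay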
Description: SANGER: Inhibition of human SW780 cell growth in a cell viability assay.

NCI-H2228 = format: functional, cell-based;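 also: growth inhibition of human NCI-H2228 cells, read out by a cell viability assay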
Description: SANGER: Inhibition of human NCI-H2228 cell growth in a cell viability assay.

MEL-JUSO = format: functional, cell-based;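 also: growth inhibition of human MEL-JUSO cells, read out with a cell viability assay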
Description: SANGER: Inhibition of human MEL-JUSO cell growth in a cell viability assay.

NCI-H1703 = format: functional, cell-based;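 also: growth inhibition of NCI-H1703 cells, read out via a cell viability assay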
Description: SANGER: Inhibition of human NCI-H1703 cell growth in a cell viability assay.

A 172 = format: functional, cell-based;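 also: growth inhibition of A172 cells, measured with a cell viability readout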
Description: SANGER: Inhibition of human A172 cell growth in a cell viability assay.

D-542MG = format: functional, cell-based
Description: SANGER: Inhibition of human D-542MG cell growth in a cell viability assay.

Cn1c(=O)n(-c2ccc(C(C)(C)C#N)cc2)c2c3cc(-c4cnc5ccccc5c4)ccc3ncc21 [DACTOLISIB]
IC50 (HT1197): 238 nM
IC50 (SW1463): 739 nM
IC50 (AGS): 48.8 nM
IC50 (C3A): > 2000 nM
IC50 (KU-19-19): 31.1 nM
IC50 (CAL-62): 36.9 nM
IC50 (PC-14): 46.6 nM
IC50 (SNU-387): 104 nM
IC50 (NCI-H2347): 173 nM
IC50 (MOLT-13): 113 nM
IC50 (HuP-T4): 127 nM
IC50 (HLE): 53.5 nM
IC50 (PANC-03-27): 76.3 nM
IC50 (NB14): 88.3 nM
IC50 (KYSE-180): 46.2 nM
IC50 (LB996-RCC): 47.2 nM
IC50 (PANC-08-13): 58 nM
IC50 (BFTC-909): 3.71 nM
IC50 (SNU-423): 68 nM
IC50 (YH-13): 21.9 nM
IC50 (KYSE-150 cell line): 25.9 nM
IC50 (RERF-LC-MS): 124 nM
IC50 (A253 cell line): 82.6 nM
IC50 (HPAF-II): 156 nM
IC50 (T47D): 67.9 nM
IC50 (ChaGo-K-1): 328 nM
IC50 (ME-180): 22.4 nM
IC50 (647-V): 78.1 nM
IC50 (KYSE-270): 131 nM
IC50 (CAL-51): 23.9 nM
IC50 (EGI-1): 16.4 nM
IC50 (RMG-I): 468 nM
IC50 (NCI-H1048): 86.3 nM
IC50 (TYK-nu): 9.94 nM
IC50 (HCT-116): 131 nM
IC50 (MEL-HO): 24 nM
IC50 (SW48): 201 nM
IC50 (COR-L23): 49.2 nM
IC50 (EW-22): 46.2 nM
IC50 (SW780): 23.1 nM
IC50 (NCI-H2228): 88.3 nM

C[C@]12O[C@H](C[C@]1(O)CO)n1c3ccccc3c3c4c(c5c6ccccc6n2c5c31)CNC4=O [LESTAURTINIB]
IC50 (HT1197): > 2000 nM
IC50 (SW1463): > 2000 nM
IC50 (MEL-JUSO): 503 nM
IC50 (AGS): 69.1 nM
IC50 (C3A): > 2000 nM
IC50 (KU-19-19): 1330 nM
IC50 (NCI-H1703): 345 nM
IC50 (CAL-62): 254 nM
IC50 (PC-14): 449 nM
IC50 (SNU-387): 601 nM
IC50 (NCI-H2347): > 2000 nM
IC50 (MOLT-13): 409 nM
IC50 (HuP-T4): 1330 nM
IC50 (HLE): 1390 nM
IC50 (PANC-03-27): 342 nM
IC50 (NB14): 19.6 nM
IC50 (KYSE-180): > 2000 nM
IC50 (PANC-08-13): > 2000 nM
IC50 (BFTC-909): 249 nM
IC50 (SNU-423): 731 nM
IC50 (YH-13): 135 nM
IC50 (KYSE-150 cell line): 651 nM
IC50 (A 172): 1940 nM
IC50 (RERF-LC-MS): 812 nM
IC50 (HPAF-II): > 2000 nM
IC50 (T47D): > 2000 nM
IC50 (ChaGo-K-1): 1960 nM
IC50 (ME-180): 737 nM
IC50 (647-V): 1000 nM
IC50 (KYSE-270): 392 nM
IC50 (CAL-51): 278 nM
IC50 (EGI-1): 572 nM
IC50 (RMG-I): > 2000 nM
IC50 (NCI-H1048): 141 nM
IC50 (TYK-nu): 185 nM
IC50 (HCT-116): 137 nM
IC50 (MEL-HO): 120 nM
IC50 (SW48): 71.6 nM
IC50 (COR-L23): 665 nM
IC50 (EW-22): 862 nM
IC50 (SW780): 327 nM
IC50 (NCI-H2228): > 2000 nM
IC50 (D-542MG): > 2000 nM

CC(=O)c1c(C)c2cnc(Nc3ccc(N4CCNCC4)cn3)nc2n(C2CCCC2)c1=O [PALBOCICLIB]
IC50 (HT1197): > 4000 nM
IC50 (SW1463): > 4000 nM
IC50 (AGS): > 4000 nM
IC50 (C3A): > 4000 nM
IC50 (KU-19-19): > 4000 nM
IC50 (CAL-62): 1610 nM
IC50 (PC-14): > 4000 nM
IC50 (SNU-387): > 4000 nM
IC50 (NCI-H2347): > 4000 nM
IC50 (MOLT-13): 1010 nM
IC50 (HuP-T4): > 4000 nM
IC50 (HLE): > 4000 nM
IC50 (PANC-03-27): > 4000 nM
IC50 (NB14): 484 nM
IC50 (KYSE-180): > 4000 nM
IC50 (LB996-RCC): > 4000 nM
IC50 (PANC-08-13): > 4000 nM
IC50 (BFTC-909): > 4000 nM
IC50 (SNU-423): > 4000 nM
IC50 (YH-13): 3440 nM
IC50 (KYSE-150 cell line): 1000 nM
IC50 (RERF-LC-MS): > 4000 nM
IC50 (A253 cell line): > 4000 nM
IC50 (HPAF-II): > 4000 nM
IC50 (T47D): 1680 nM
IC50 (ChaGo-K-1): > 4000 nM
IC50 (ME-180): > 4000 nM
IC50 (647-V): > 4000 nM
IC50 (KYSE-270): > 4000 nM
IC50 (CAL-51): 1750 nM
IC50 (EGI-1): 2470 nM
IC50 (RMG-I): > 4000 nM
IC50 (NCI-H1048): > 4000 nM
IC50 (TYK-nu): 998 nM
IC50 (HCT-116): > 4000 nM
IC50 (MEL-HO): > 4000 nM
IC50 (SW48): > 4000 nM
IC50 (COR-L23): 1230 nM
IC50 (EW-22): > 4000 nM
IC50 (SW780): 1960 nM
IC50 (NCI-H2228): > 4000 nM

C[C@]1(c2nc3c(C(N)=O)cccc3[nH]2)CCCN1 [VELIPARIB]
IC50 (HT1197): > 5000 nM
IC50 (SW1463): > 5000 nM
IC50 (MEL-JUSO): > 5000 nM
IC50 (AGS): > 5000 nM
IC50 (C3A): > 5000 nM
IC50 (KU-19-19): > 5000 nM
IC50 (NCI-H1703): > 5000 nM
IC50 (CAL-62): > 5000 nM
IC50 (PC-14): > 5000 nM
IC50 (SNU-387): > 5000 nM
IC50 (NCI-H2347): > 5000 nM
IC50 (MOLT-13): > 5000 nM
IC50 (HuP-T4): > 5000 nM
IC50 (HLE): > 5000 nM
IC50 (PANC-03-27): > 5000 nM
IC50 (NB14): > 5000 nM
IC50 (KYSE-180): > 5000 nM
IC50 (PANC-08-13): > 5000 nM
IC50 (BFTC-909): > 5000 nM
IC50 (SNU-423): > 5000 nM
IC50 (YH-13): > 5000 nM
IC50 (KYSE-150 cell line): > 5000 nM
IC50 (A 172): > 5000 nM
IC50 (RERF-LC-MS): > 5000 nM
IC50 (HPAF-II): > 5000 nM
IC50 (T47D): > 5000 nM
IC50 (ChaGo-K-1): > 5000 nM
IC50 (ME-180): > 5000 nM
IC50 (647-V): > 5000 nM
IC50 (KYSE-270): > 5000 nM
IC50 (CAL-51): > 5000 nM
IC50 (EGI-1): > 5000 nM
IC50 (RMG-I): > 5000 nM
IC50 (NCI-H1048): > 5000 nM
IC50 (TYK-nu): > 5000 nM
IC50 (HCT-116): > 5000 nM
IC50 (MEL-HO): > 5000 nM
IC50 (SW48): > 5000 nM
IC50 (COR-L23): > 5000 nM
IC50 (EW-22): > 5000 nM
IC50 (SW780): > 5000 nM
IC50 (NCI-H2228): > 5000 nM
IC50 (D-542MG): > 5000 nM
